Reference: ChEMBL document CHEMBL4145625 (J Med Chem, 2018)

Tests used:
HGC-27 = experiment: Antitumor activity against human HGC27 cells xenografted in BALB/c nude mouse assessed as tumor growth inhibition at 5 mg/kg, po administered once daily for 15 days measured at post last dose relative to control; assay type: functional; details: HGC-27, po, 360 h, read-out: TGI
MGC-803 [1] = details: Homo sapiens
Description: Antitumor activity against human MGC803 cells xenografted in po dosed BALB/c nude mouse assessed as tumor growth inhibition administered once daily measured at post last dose

MGC-803 [2] = experiment: Antitumor activity against human MGC803 cells xenografted in BALB/c nude mouse assessed as tumor growth inhibition at 5 mg/kg, po administered once daily for 18 days measured at post last dose relative to control; assay type: functional; details: MGC-803, po, 432 h, read-out: TGI
Salmonella typhimurium = experiment: Mutagenicity in Salmonella typhimurium TA1535 at 500 ug/plate after 72 hrs by Ames test; assay type: toxicity, organism-based; details: salmonella enterica subsp. enterica serovar typhimurium

Row | SMILES | inhibition in vivo at 5 mg/kg (HGC-27) | TGI (MGC-803 [1]) | inhibition in vivo at 5 mg/kg (MGC-803 [2]) | Activity (Salmonella typhimurium)
1 | COc1ncc(-c2cc(O[C@@H]3CCOC3)c3nc(N)nc(C)c3c2)cc1NS(=O)(=O)c1ccc(F)cc1F | 36.1% | Dose-dependent effect | 55.1% | –
2 | CNc1nc(C)c2cc(-c3cnc(OC)c(NS(=O)(=O)c4ccc(F)cc4F)c3)cc(OC3CCOCC3)c2n1 | – | – | – | Toxic
